Structures can show the parent of a compound that is named as a salt.

Data set [1] in a line: Intrinsic dissolution rate (USP 23 section 711, apparatus 2, compressed pellets in water). Particulars: 900 mL water, 37° C., 100 rpm, pellet with exposed surface area 0.5 cm^2, UV 220 nm. It is filed as physicochemical. The procedure: The intrinsic dissolution rates of Form II and the crystalline polymorph of the present invention were determined as follows. Pellets of venlafaxine hydrochloride were prepared by compressing 100 mg of each material in a die (Wood's apparatus) at 1000 psi for 1 minute with a Carver press. […] The dissolution rate in 900 mL of water was determined by USP 23 (1995), section 711, page 1791 (Dissolution, apparatus 2), with a rotation speed of 100 rpm at 37° C. The dissolution media was circulated through a 1.0 cm path microflow cell at a flow rate of 10 mL/minute. Ultraviolet absorbance was recorded at 220 nm.

Data set [2] can be described thus: Thermogravimetric analysis (TGA). It is filed as physicochemical. Particulars: heated from 28 to 238° C. at 10° C./minute under nitrogen purge. The procedure: A sample of the venlafaxine hydrochloride crystalline polymorph of the present invention was heated from 28 to 238° C. at a scan rate of 10° C./minute in a Pyris I TGA, available from Perkin-Elmer of Shelton, Conn., under a nitrogen purge.

In data set [3] the test system is adrenergic receptors. The following applies: in vitro; cited from earlier work.
Data set [4] has as its system muscaranic receptors. The following applies: in vitro; cited from earlier work.
Data set [5] has as its system monoamine oxidase. The following applies: cited from earlier work.
Data set [6] relates to histaminergic receptors. The following applies: in vitro; cited from earlier work.

In the case of `COc1ccc(C(CN(C)C)C2(O)CCCCC2)cc1` (stereo not drawn) [Form II, venlafaxine hydrochloride], the intrinsic dissolution rate in data set [1] amounted to 24.7 mg/cm^2-minute.

On to `COc1ccc(C(CN(C)C)C2(O)CCCCC2)cc1` (stereo not drawn) [venlafaxine hydrochloride], for which the “weight loss on heating (TGA)” value in data set [2] is “lost little weight until it was heated near the melting point”.

Consider `COc1ccc(C(CN(C)C)C2(O)CCCCC2)cc1` (stereo not drawn) [venlafaxine, 1-[2-(dimethylamino)-1-(4-methoxyphenyl)ethyl]cyclohexanol], for which the “affinity for adrenergic receptors” value in data set [3] is “virtually no affinity”. The “affinity for muscaranic receptors” value in data set [4] was “virtually no affinity”. Besides, in data set [5], the “inhibitory activity on monoamine oxidase” value is given as “no inhibitory activity”. In data set [6], the “affinity for histaminergic receptors” value is given as “virtually no affinity”.

Source of the values: patent US20060074131A1, “Novel crystalline polymorph of venlafaxine hydrochloride and methods for the preparation thereof” (Wyeth, priority 2001, published 2006).
